Experimental findings from patent US9758529B2, “Fused dihydro-4H-pyrazolo[5,1-C][1,4]oxazinyl compounds and analogs for treating CNS disorders” (Sunovion Pharmaceuticals Inc., priority 2015, dated 2017) are described below.

Each structure is given as a SMILES string.

The assay relates to mice. In words: Neuropharmacological Assay (SmartCube). The settings on record: i.p. 15 min before behavioral test; 3 doses, most efficacious dose(s) presented. It is filed as in vivo.

Take `c1ccc2c3n(nc2c1)CCOC3C1CNC1` (stereo not shown) [Compound 66, 3-(3,4-dihydro-1H-[1,4]oxazino[4,3-b]indazol-1-yl)azetidin-1-ium chloride]: the “AD: ADHD (probability of class match)” value is “+ (LOQ≦ + <5%)”, the “AG: analgesic (probability of class match)” value (shortened to “AG: analgesic”) is “++ (5%≦ ++ <25%)”, the “AX: anxiolytic (probability of class match)” value (“AX: anxiolytic” for short) was “++ (5%≦ ++ <25%)” and the “CE: cognitive enhancer (probability of class match)” value (“CE: cognitive enhancer” for short) was “+ (LOQ≦ + <5%)”. Also, the “DP: anti-depressant (probability of class match)” value (“DP: anti-depressant” for short) is “++ (5%≦ ++ <25%)”, the “HA: hallucinogen (probability of class match)” value (from here on “HA: hallucinogen”) is given as “+ (LOQ≦ + <5%)”, the “MS: mood stabilizer (probability of class match)” value (shortened to “MS: mood stabilizer”) is recorded as “+ (LOQ≦ + <5%)” and the “PS: anti-psychotic (probability of class match)” value (shortened to “PS: anti-psychotic”) was “+ (LOQ≦ + <5%)”. The “SD: sedative hypnotic (probability of class match)” value (from here on “SD: sedative hypnotic”) was “+ (LOQ≦ + <5%)”, the “UN: uncharacterized CNS activity (probability of class match)” value (“UN: uncharacterized CNS activity” below) is “+ (LOQ≦ + <5%)” and the “XG: anxiogenic (probability of class match)” value (from here on “XG: anxiogenic”) is listed as “+ (LOQ≦ + <5%)”.
`CN1CC(C2OCCn3nc4ccccc4c32)C1.Cl` (stereo not shown) [Compound 67, 3-(3,4-dihydro-1H-[1,4]oxazino[4,3-b]indazol-1-yl)-1-methylazetidin-1-ium chloride]: the “AD: ADHD (probability of class match)” value was “+ (LOQ≦ + <5%)”, the “AG: analgesic” value is “+ (LOQ≦ + <5%)”, the “AX: anxiolytic” value was “++ (5%≦ ++ <25%)” and the “CE: cognitive enhancer” value is “+ (LOQ≦ + <5%)”. Besides, the “DP: anti-depressant” value is reported as “++ (5%≦ ++ <25%)”, the “HA: hallucinogen” value is listed as “+ (LOQ≦ + <5%)”, the “MS: mood stabilizer” value is given as “+ (LOQ≦ + <5%)” and the “PS: anti-psychotic” value is listed as “+ (LOQ≦ + <5%)”. Also, the “SD: sedative hypnotic” value is “+ (LOQ≦ + <5%)”, the “UN: uncharacterized CNS activity” value was “+ (LOQ≦ + <5%)” and the “XG: anxiogenic” value is listed as “+ (LOQ≦ + <5%)”.
`CNC[C@@H]1OCCn2nc3ccsc3c21` [Compound 68, (S)-1-(6,7-dihydro-9H-thieno[3′,2′:3,4]pyrazolo[5,1-c][1,4]oxazin-9-yl)-N-methylmethanamine]: the “AD: ADHD (probability of class match)” value was “++ (5%≦ ++ <25%)”, the “AG: analgesic” value was “++ (5%≦ ++ <25%)”, the “AX: anxiolytic” value is “++ (5%≦ ++ <25%)” and the “CE: cognitive enhancer” value was “+ (LOQ≦ + <5%)”. For the same molecule, the “DP: anti-depressant” value is listed as “++++ (50%≦ ++++)”, the “HA: hallucinogen” value is reported as “++++ (50%≦ ++++)”, the “MS: mood stabilizer” value is “+ (LOQ≦ + <5%)” and the “PS: anti-psychotic” value is “+ (LOQ≦ + <5%)”. Further, the “SD: sedative hypnotic” value is recorded as “++ (5%≦ ++ <25%)”, the “UN: uncharacterized CNS activity” value was “++ (5%≦ ++ <25%)” and the “XG: anxiogenic” value was “+ (LOQ≦ + <5%)”.
As for `CNC[C@H]1OCCn2nc3ccsc3c21` [Compound 69, (R)-1-(6,7-dihydro-9H-thieno[3′,2′:3,4]pyrazolo[5,1-c][1,4]oxazin-9-yl)-N-methylmethanamine], the “AD: ADHD (probability of class match)” value was “+ (LOQ≦ + <5%)”, the “AG: analgesic” value is reported as “+ (LOQ≦ + <5%)”, the “AX: anxiolytic” value is recorded as “++ (5%≦ ++ <25%)” and the “CE: cognitive enhancer” value was “+ (LOQ≦ + <5%)”. Besides, the “DP: anti-depressant” value is on record as “++ (5%≦ ++ <25%)”, the “HA: hallucinogen” value is “+ (LOQ≦ + <5%)”, the “MS: mood stabilizer” value is “+ (LOQ≦ + <5%)” and the “PS: anti-psychotic” value is reported as “+ (LOQ≦ + <5%)”. Moreover, the “SD: sedative hypnotic” value is recorded as “+ (LOQ≦ + <5%)”, the “UN: uncharacterized CNS activity” value is “++ (5%≦ ++ <25%)” and the “XG: anxiogenic” value is “+ (LOQ≦ + <5%)”.
For the molecule `CNCC1OCCn2nc3ccccc3c21` (stereo not shown) [Compound I-4, (3,4-dihydro-1H-[1,4]oxazino[4,3-b]indazol-1-yl)-N-methylmethanamine], the “AD: ADHD (probability of class match)” value is given as “++ (5%≦ ++ <25%)”, the “AG: analgesic” value was “+ (LOQ≦ + <5%)”, the “AX: anxiolytic” value was “+++ (25%≦ +++ <50%)” and the “CE: cognitive enhancer” value is listed as “+ (LOQ≦ + <5%)”. In addition, the “DP: anti-depressant” value is recorded as “++++ (50%≦ ++++)”, the “HA: hallucinogen” value is reported as “++ (5%≦ ++ <25%)”, the “MS: mood stabilizer” value is on record as “+ (LOQ≦ + <5%)” and the “PS: anti-psychotic” value was “+ (LOQ≦ + <5%)”. Also, the “SD: sedative hypnotic” value is “++ (5%≦ ++ <25%)”, the “UN: uncharacterized CNS activity” value is “+ (LOQ≦ + <5%)” and the “XG: anxiogenic” value was “+ (LOQ≦ + <5%)”.
